Tested on: MV-4-11 cells
Assay: Gene expression microarray analysis (Affymetrix PrimeView) and GSEA
Format: cell-based, human
Design: RFU PODN (11730768_x_at) / Fold change /veh PODN (11730768_x_at) / RFU LINC00158 (11744669_a_at) / Fold change /veh LINC00158 (11744669_a_at) / RFU DUSP10 (11751237_a_at) / Fold change /veh DUSP10 (11751237_a_at) / RFU ID3 (11757404_x_at) / Fold change /veh ID3 (11757404_x_at) / RFU PLEKHG5 (11737974_s_at) / Fold change /veh PLEKHG5 (11737974_s_at) / RFU LRRC4B (11730491_at) / Fold change /veh LRRC4B (11730491_at) / RFU GIMAP4 (11747438_a_at) / Fold change /veh GIMAP4 (11747438_a_at) / RFU KRT8 (11758183_x_at) / Fold change /veh KRT8 (11758183_x_at) / RFU CNN1 (11734310_a_at) / Fold change /veh CNN1 (11734310_a_at) / RFU VPS37D (11726825_at) / Fold change /veh VPS37D (11726825_at) / RFU C10orf10 (11716522_x_at) / Fold change /veh C10orf10 (11716522_x_at) / RFU KIR2DL2 /// KIR2DL4 /// KIR2DL5A /// KIR2DL5B /// KIR2DS1 /// KIR2DS2 /// KIR2DS3 /// KIR2DS4 /// KIR3DL3 /// KIR3DL3 /// KIR3DS1 (11738374_at) / Fold change /veh KIR2DL2 /// KIR2DL4 /// KIR2DL5A /// KIR2DL5B /// KIR2DS1 /// KIR2DS2 /// KIR2DS3 /// KIR2DS4 /// KIR3DL3 /// KIR3DL3 /// KIR3DS1 (11738374_at) / RFU C1QL1 (11718748_at) / Fold change /veh C1QL1 (11718748_at) / RFU TMPRSS4 (11747572_a_at) / Fold change /veh TMPRSS4 (11747572_a_at) / RFU HAMP (11756126_x_at) / Fold change /veh HAMP (11756126_x_at) / RFU RNFT2 (11725882_a_at) / Fold change /veh RNFT2 (11725882_a_at) / RFU NR4A2 (11747474_a_at) / Fold change /veh NR4A2 (11747474_a_at) / RFU ABCC12 (11746883_a_at) / Fold change /veh ABCC12 (11746883_a_at) / RFU TMEM136 (11760407_x_at) / Fold change /veh TMEM136 (11760407_x_at) / RFU CLDN22 /// WWC2 (11732394_at) / Fold change /veh CLDN22 /// WWC2 (11732394_at) / RFU HLA-DPB1 (11760878_x_at) / Fold change /veh HLA-DPB1 (11760878_x_at) / RFU SPINT1 (11716480_a_at) / Fold change /veh SPINT1 (11716480_a_at) / RFU GAP43 (11754022_s_at) / Fold change /veh GAP43 (11754022_s_at) / RFU A4GNT (11735810_at) / Fold change /veh A4GNT (11735810_at) / RFU PRB3 (11715151_x_at) / Fold change /veh PRB3 (11715151_x_at) / RFU TUBB4B (11761932_at) / Fold change /veh TUBB4B (11761932_at) / RFU CAPN14 (11732068_a_at) / Fold change /veh CAPN14 (11732068_a_at) / RFU TMCC2 (11721928_a_at) / Fold change /veh TMCC2 (11721928_a_at) / RFU IRGQ (11745062_a_at) / Fold change /veh IRGQ (11745062_a_at) / RFU FAM174B (11720279_a_at) / Fold change /veh FAM174B (11720279_a_at) / RFU TMPRSS4 (11748680_a_at) / Fold change /veh TMPRSS4 (11748680_a_at) / RFU FAM212B (11763350_a_at) / Fold change /veh FAM212B (11763350_a_at) / RFU PLEKHG5 (11743358_a_at) / Fold change /veh PLEKHG5 (11743358_a_at) / RFU ZSCAN30 (11745921_a_at) / Fold change /veh ZSCAN30 (11745921_a_at) / RFU CMKLR1 (11741424_a_at) / Fold change /veh CMKLR1 (11741424_a_at) / RFU LOC101060620 /// MAPK8IP1 (11723275_at) / Fold change /veh LOC101060620 /// MAPK8IP1 (11723275_at) / RFU SPTSSB (11747773_x_at) / Fold change /veh SPTSSB (11747773_x_at) / RFU PRSS12 (11739890_at) / Fold change /veh PRSS12 (11739890_at) / RFU BIN1 (11741810_x_at) / Fold change /veh BIN1 (11741810_x_at) / RFU WNT11 (11732464_a_at) / Fold change /veh WNT11 (11732464_a_at) / RFU C10orf10 (11716521_a_at) / Fold change /veh C10orf10 (11716521_a_at) / RFU C5orf56 (11738089_at) / Fold change /veh C5orf56 (11738089_at) / RFU CYB561 (11721691_x_at) / Fold change /veh CYB561 (11721691_x_at) / RFU ANKRD19P (11752326_a_at) / Fold change /veh ANKRD19P (11752326_a_at) / RFU OR2T12 /// OR2T33 /// OR2T8 (11738714_s_at) / Fold change /veh OR2T12 /// OR2T33 /// OR2T8 (11738714_s_at) / RFU VCAN (11748164_a_at) / Fold change /veh VCAN (11748164_a_at) / RFU JSRP1 (11732532_at) / Fold change /veh JSRP1 (11732532_at) / RFU KRTAP10-11 (11738290_x_at) / Fold change /veh KRTAP10-11 (11738290_x_at) / RFU MYO3A (11730013_a_at) / Fold change /veh MYO3A (11730013_a_at) / RFU EBF3 (11725865_a_at) / Fold change /veh EBF3 (11725865_a_at) / RFU CAMK2N1 (11719241_x_at) / Fold change /veh CAMK2N1 (11719241_x_at) / RFU C5orf56 (11738088_a_at) / Fold change /veh C5orf56 (11738088_a_at) / RFU OLFML3 (11715873_a_at) / Fold change /veh OLFML3 (11715873_a_at) / RFU LOC100653217 /// NTM (11731650_a_at) / Fold change /veh LOC100653217 /// NTM (11731650_a_at) / RFU MAPK11 (11762145_a_at) / Fold change /veh MAPK11 (11762145_a_at) / RFU FIZ1 (11724087_x_at) / Fold change /veh FIZ1 (11724087_x_at) / RFU OASL (11726364_x_at) / Fold change /veh OASL (11726364_x_at) / RFU SOX15 (11748057_x_at) / Fold change /veh SOX15 (11748057_x_at) / RFU CD79A (11719716_a_at) / Fold change /veh CD79A (11719716_a_at) / RFU HIST1H1D (11736915_at) / Fold change /veh HIST1H1D (11736915_at) / RFU CASKIN2 (11723855_a_at) / Fold change /veh CASKIN2 (11723855_a_at) / RFU LOC730098 (11760151_x_at) / Fold change /veh LOC730098 (11760151_x_at) / RFU OR4N2 (11742367_at) / Fold change /veh OR4N2 (11742367_at) / RFU PRRT2 (11749266_a_at) / Fold change /veh PRRT2 (11749266_a_at) / RFU SNX32 (11753110_a_at) / Fold change /veh SNX32 (11753110_a_at) / RFU CDHR5 (11726645_a_at) / Fold change /veh CDHR5 (11726645_a_at) / RFU RCAN1 (11760418_a_at) / Fold change /veh RCAN1 (11760418_a_at) / RFU FAM167A (11723789_a_at) / Fold change /veh FAM167A (11723789_a_at) / RFU FAM26E (11764081_at) / Fold change /veh FAM26E (11764081_at) / RFU ISYNA1 (11749810_s_at) / Fold change /veh ISYNA1 (11749810_s_at) / RFU ACY1 (11761880_at) / Fold change /veh ACY1 (11761880_at) / RFU 11764098_at / Fold change /veh 11764098_at / RFU SAMD14 (11745864_x_at) / Fold change /veh SAMD14 (11745864_x_at) / RFU NPB (11741838_a_at) / Fold change /veh NPB (11741838_a_at) / RFU TMPRSS6 (11731388_a_at) / Fold change /veh TMPRSS6 (11731388_a_at) / RFU KRTAP10-2 (11738614_at) / Fold change /veh KRTAP10-2 (11738614_at) / RFU ARHGAP8 /// PRR5-ARHGAP8 (11727945_x_at) / Fold change /veh ARHGAP8 /// PRR5-ARHGAP8 (11727945_x_at) / RFU KRTAP5-7 /// NADSYN1 (11734609_at) / Fold change /veh KRTAP5-7 /// NADSYN1 (11734609_at) / RFU RASL12 (11751679_a_at) / Fold change /veh RASL12 (11751679_a_at) / RFU CDKN2B (11736163_a_at) / Fold change /veh CDKN2B (11736163_a_at) / RFU PRF1 (11729649_at) / Fold change /veh PRF1 (11729649_at) / RFU, ZNF638 /// ZNF638-IT1 / Fold change vs veh, ZNF638 /// ZNF638-IT1 / RFU, PANK3 / Fold change vs veh, PANK3 / RFU, SH3YL1 / Fold change vs veh, SH3YL1 / RFU, ZEB2 / Fold change vs veh, ZEB2 / RFU, NRIP1 / Fold change vs veh, NRIP1 / RFU, PTTG1IP / Fold change vs veh, PTTG1IP / RFU, CAPN2 / Fold change vs veh, CAPN2 / RFU, MED14 / Fold change vs veh, MED14 / RFU, SNORA58 / Fold change vs veh, SNORA58 / RFU, C1orf63 / Fold change vs veh, C1orf63 / RFU, LRRFIP1 / Fold change vs veh, LRRFIP1 / RFU, NDUFAF7 / Fold change vs veh, NDUFAF7 / RFU, SLC12A2 / Fold change vs veh, SLC12A2 / RFU, IBTK / Fold change vs veh, IBTK / RFU, ESF1 / Fold change vs veh, ESF1 / Fold change vs veh, TMEM50B / RFU, TAOK1 / Fold change vs veh, TAOK1 / RFU, ACBD3 / Fold change vs veh, ACBD3 / RFU, TMA16 / Fold change vs veh, TMA16 / RFU, RWDD3 / Fold change vs veh, RWDD3 / RFU, BCAT1 / Fold change vs veh, BCAT1 / RFU, EDEM3 / Fold change vs veh, EDEM3 / RFU, TMEM33 / Fold change vs veh, TMEM33 / RFU, WDR75 / Fold change vs veh, WDR75 / RFU, AHCTF1 / Fold change vs veh, AHCTF1 / RFU, TFRC / Fold change vs veh, TFRC / RFU, ZDHHC17 / Fold change vs veh, ZDHHC17 / RFU, NOM1 / Fold change vs veh, NOM1 / RFU, ARL8B / Fold change vs veh, ARL8B / RFU, ZBTB11 / Fold change vs veh, ZBTB11 / RFU, TAMM41 / Fold change vs veh, TAMM41 / RFU, KIAA1704 /// LOC100996395 / Fold change vs veh, KIAA1704 /// LOC100996395 / RFU, ING1 / Fold change vs veh, ING1 / RFU, TRMT61B / Fold change vs veh, TRMT61B / RFU, FUBP3 / Fold change vs veh, FUBP3 / RFU, TP53 / Fold change vs veh, TP53 / RFU, TNKS2 / Fold change vs veh, TNKS2 / RFU, ZFP14 / Fold change vs veh, ZFP14 / RFU, ACTR2 / Fold change vs veh, ACTR2 / RFU, PPP3R1 / Fold change vs veh, PPP3R1 / RFU, PIK3R1 / Fold change vs veh, PIK3R1 / RFU, HNRNPA1 / Fold change vs veh, HNRNPA1 / RFU, RNF170 / Fold change vs veh, RNF170 / RFU, ZNF28 / Fold change vs veh, ZNF28 / RFU, RNGTT / Fold change vs veh, RNGTT / RFU, OGT / Fold change vs veh, OGT / RFU, BRD1 / Fold change vs veh, BRD1 / RFU, MARS / Fold change vs veh, MARS / RFU, ZNF655 / Fold change vs veh, ZNF655 / RFU, FAHD1 / Fold change vs veh, FAHD1 / RFU, BDP1 / Fold change vs veh, BDP1 / RFU, LRRCC1 / Fold change vs veh, LRRCC1 / RFU, ARID1A / Fold change vs veh, ARID1A / RFU, ZNF146 / Fold change vs veh, ZNF146 / RFU, ZNF330 / Fold change vs veh, ZNF330 / RFU, GPN3 / Fold change vs veh, GPN3 / RFU, C9orf123 / Fold change vs veh, C9orf123 / RFU, N4BP2L2 / Fold change vs veh, N4BP2L2 / RFU, ARFIP1 / Fold change vs veh, ARFIP1 / RFU, FAM179B / Fold change vs veh, FAM179B / RFU, BCL10 / Fold change vs veh, BCL10 / RFU, UHRF1BP1L / Fold change vs veh, UHRF1BP1L / RFU, BET1 / Fold change vs veh, BET1 / RFU, CNOT2 / Fold change vs veh, CNOT2 / RFU, ZNF268 / Fold change vs veh, ZNF268 / Fold change vs veh, ZNF507 / RFU, DGCR2 / Fold change vs veh, DGCR2 / RFU, WDSUB1 / Fold change vs veh, WDSUB1 / Fold change vs veh, HSP90B1 /// MIR3652 / RFU, ADSS / Fold change vs veh, ADSS / RFU, GK / Fold change vs veh, GK / RFU, ZNF148 / Fold change vs veh, ZNF148 / RFU, TAF9 / Fold change vs veh, TAF9 / RFU, SLC1A5 / Fold change vs veh, SLC1A5 / RFU, SLMO2 / Fold change vs veh, SLMO2 / RFU, ABCC4 / Fold change vs veh, ABCC4 / RFU, LOC101060439 /// RAP1B / Fold change vs veh, LOC101060439 /// RAP1B / RFU, RFX7 / Fold change vs veh, RFX7 / RFU, GTPBP10 / Fold change vs veh, GTPBP10 / RFU, CNEP1R1 / Fold change vs veh, CNEP1R1 / RFU, BIVM-ERCC5 /// ERCC5 / Fold change vs veh, BIVM-ERCC5 /// ERCC5 / RFU, ILF3 / Fold change vs veh, ILF3 / RFU 11762660_at / Fold change /veh 11762660_at / RFU VCAN (11757783_s_at) / Fold change /veh VCAN (11757783_s_at) / RFU DDX43 (11728927_at) / Fold change /veh DDX43 (11728927_at) / RFU KRT8 (11758188_x_at) / Fold change /veh KRT8 (11758188_x_at) / RFU NKD1 (11759106_at) / Fold change /veh NKD1 (11759106_at) / RFU SRD5A1 (11742802_a_at) / Fold change /veh SRD5A1 (11742802_a_at) / RFU TPSAB1 /// TPSB2 (11721975_s_at) / Fold change /veh TPSAB1 /// TPSB2 (11721975_s_at) / RFU GSTM3 (11746129_a_at) / Fold change /veh GSTM3 (11746129_a_at) / RFU IL23R (11737362_x_at) / Fold change /veh IL23R (11737362_x_at) / RFU TMEM51 (11727254_a_at) / Fold change /veh TMEM51 (11727254_a_at) / RFU PIWIL2 (11732686_x_at) / Fold change /veh PIWIL2 (11732686_x_at) / RFU ORM1 (11744905_x_at) / Fold change /veh ORM1 (11744905_x_at) / RFU CCDC152 (11743942_at) / Fold change /veh CCDC152 (11743942_at) / RFU ECM1 (11717891_a_at) / Fold change /veh ECM1 (11717891_a_at) / RFU IL23R (11748794_a_at) / Fold change /veh IL23R (11748794_a_at) / RFU TNFAIP8L3 (11732012_x_at) / Fold change /veh TNFAIP8L3 (11732012_x_at) / RFU MBOAT4 (11741988_at) / Fold change /veh MBOAT4 (11741988_at) / RFU 11764193_at / Fold change /veh 11764193_at / RFU TMEM53 (11763286_at) / Fold change /veh TMEM53 (11763286_at) / RFU MAGEB2 (11727129_at) / Fold change /veh MAGEB2 (11727129_at) / RFU TMEM200A (11744735_a_at) / Fold change /veh TMEM200A (11744735_a_at) / RFU CCDC152 (11751479_a_at) / Fold change /veh CCDC152 (11751479_a_at) / RFU FAM211A (11726209_a_at) / Fold change /veh FAM211A (11726209_a_at) / RFU RGS16 (11746705_a_at) / Fold change /veh RGS16 (11746705_a_at) / RFU VCAN (11755009_s_at) / Fold change /veh VCAN (11755009_s_at) / RFU RHOB (11743442_s_at) / Fold change /veh RHOB (11743442_s_at) / RFU RGS16 (11720943_a_at) / Fold change /veh RGS16 (11720943_a_at) / RFU RGS16 (11720944_at) / Fold change /veh RGS16 (11720944_at) / RFU, VPS4B / Fold change vs veh, VPS4B / RFU, CREB1 / Fold change vs veh, CREB1 / RFU, DNAJC13 / Fold change vs veh, DNAJC13 / RFU, GNAQ / Fold change vs veh, GNAQ / RFU, CDK5R1 / Fold change vs veh, CDK5R1 / RFU, ZRANB3 / Fold change vs veh, ZRANB3 / RFU, CUL4A / Fold change vs veh, CUL4A / RFU, CCNY / Fold change vs veh, CCNY / RFU, UFL1 / Fold change vs veh, UFL1 / RFU, COG3 / Fold change vs veh, COG3 / RFU, DIAPH2 / Fold change vs veh, DIAPH2 / RFU, SKA2 / Fold change vs veh, SKA2 / RFU, AFF3 / Fold change vs veh, AFF3 / RFU, LMF1 / Fold change vs veh, LMF1 / RFU, IPO11 / Fold change vs veh, IPO11 / RFU, DFFB / Fold change vs veh, DFFB / RFU, FOXP1 / Fold change vs veh, FOXP1 / RFU, CARD8 / Fold change vs veh, CARD8 / RFU, STRN3 / Fold change vs veh, STRN3 / RFU, ADK / Fold change vs veh, ADK / RFU, RASSF2 / Fold change vs veh, RASSF2 / RFU, WIPF1 / Fold change vs veh, WIPF1 / RFU, LARP1B / Fold change vs veh, LARP1B / RFU, RASA1 / Fold change vs veh, RASA1 / RFU, RB1 / Fold change vs veh, RB1 / RFU, PPFIA1 / Fold change vs veh, PPFIA1 / RFU, MAT2A / Fold change vs veh, MAT2A / RFU, CCT5 / Fold change vs veh, CCT5 / RFU, WDR92 / Fold change vs veh, WDR92 / RFU, CUX1 / Fold change vs veh, CUX1 / RFU, TTC7A / Fold change vs veh, TTC7A / RFU, TMEM135 / Fold change vs veh, TMEM135 / RFU, DEPTOR / Fold change vs veh, DEPTOR / RFU, CPM / Fold change vs veh, CPM / RFU, DNAJB6 / Fold change vs veh, DNAJB6 / RFU, CACNA2D3 / Fold change vs veh, CACNA2D3 / RFU, DTX4 / Fold change vs veh, DTX4 / RFU, TFCP2 / Fold change vs veh, TFCP2 / RFU, GMCL1 /// GMCL1P1 / Fold change vs veh, GMCL1 /// GMCL1P1 / RFU, AEBP2 / Fold change vs veh, AEBP2 / RFU, SNHG1 /// SNORD22 /// SNORD25 /// SNORD26 /// SNORD27 /// SNORD28 /// SNORD29 /// SNORD31 / Fold change vs veh, SNHG1 /// SNORD22 /// SNORD25 /// SNORD26 /// SNORD27 /// SNORD28 /// SNORD29 /// SNORD31 / Fold change (Aza/veh), C12orf56 (ProbeSet 11735607_a_at) / Fold change (ACY-1035/veh), C12orf56 (ProbeSet 11735607_a_at) / Fold change (Aza/veh), FGFR1OP (ProbeSet 11751329_s_at) / Fold change (ACY-1035/veh), FGFR1OP (ProbeSet 11751329_s_at) / Fold change (Aza/veh), VPS36 (ProbeSet 11739960_a_at) / Fold change (ACY-1035/veh), VPS36 (ProbeSet 11739960_a_at) / RFU SYPL1 (11715823_x_at) / Fold change /veh SYPL1 (11715823_x_at) / RFU IGFBP7 (11715501_s_at) / Fold change /veh IGFBP7 (11715501_s_at) / RFU REEP3 (11722064_at) / Fold change /veh REEP3 (11722064_at) / RFU IGLL1 (11728026_x_at) / Fold change /veh IGLL1 (11728026_x_at): dose or concentration left out as unconfirmed
Conditions: MV-4-11 cells, 48 hours

With `Nc1ccc(-c2cccs2)cc1NC(=O)c1ccc2c(c1)cc(C1CC1)n2CCN1CCOCC1` [ACY-1035] the “Fold change /veh IGLL1 (11728026_x_at)” value was 0.28.

From paper PMC5218480 (PLoS ONE, 2017)
